The record followed here is patent US10016517B2, “Bioactive amphiphilic polymer stabilized nanoparticles with enhanced stability and activity” (RUTGERS, THE STATE UNIVERSITY OF NEW JERSEY, priority 2011, dated 2018).

In the assay the test system is human MDMs. In words: DiO oxLDL uptake by PBMC derived macrophages. It counts as cell-based. Conditions: MDMs co-incubated with PEG-b-PLA NPs loaded with M12 and DiO oxLDL. As to the method:
Peripheral blood mononuclear cells (PBMC) were isolated from human buffy coats (Blood Center of New Jersey; East Orange, N.J.) by Ficoll-Paque (1.077 g mL^−1; GE Healthcare) density gradient. Monocytes were selected by plate adherence after two hours by washing thrice with PBS and cultured for 7 days in RPMI 1640 (ATCC) with 10% FBS, 1% Penicillin/Streptomycin and 50 ng mL^−1 M-CSF for differentiation into macrophages (MDM). Media was exchanged every two to three days. Primary Human Coronary Artery Smooth Muscle Cells (CASMC) (Lonza) between passages 3-6 were cultured in SM-GM2 media (Lonza). CASMC were plated on Type I Collagen coated wells for cytotoxicity experiments. […]
Human MDMs were co-incubated with 5 μg mL^−1 of 3,3′-dioctadecyloxacarbocyanine (DiO) labeled oxLDL (Kalen Biomedical; Montgomery Village, Md.) and either NPs or micelles for 24 h in the presence of 0 (serum-free), 5, 10 or 20% FBS. […] Cells were fixed and counterstained with Hoechst 33342 before epifluorescent imaging on a Nikon Eclipse TE2000-S. Uptake of oxLDL in MDMs was quantified by ImageJ and normalized to cell count. Analyzed data were from three independent experiments performed in triplicate.
Inhibition of oxLDL uptake in human MDMs by AM NPs and analogous micellar systems were determined (FIG. 3B-C). […] Uptake of oxLDL in MDMs was determined by ImageJ analysis of epifluorescent images. […]

On to “mucic acid modified with lauroyl groups [M12]”, for which the “therapeutic efficacy towards inhibiting oxLDL uptake” value is listed as “no therapeutic efficacy”.
